Reference: PubChem BioAssay AID1259408 (Genetic Toxicology Data Bank (GENE-TOX), 2018)
The source made the active and inactive calls. No rule for the calls is given here.

Test system: GENE-TOX genotoxicity assays, various organisms and cells
Assay: GENE-TOX mutagenicity studies
Conditions: for call: Assay Type: In vivo carcinogenicity studies
[1] = Species/Cell Type: Drosophila melanogaster, Assay Type: Sex-linked recessive lethal gene mutation, Assay Code: SRL-, Evaluation Type: Evaluation A (Pre-1980)
[2] = Species/Cell Type: Fischer rat embryo (RLV/1706) cells, Assay Type: Cell transformation, viral enhanced, Assay Code: CTR+, Evaluation Type: Evaluation A (Pre-1980)
[3] = Species/Cell Type: Nonhuman, Assay Type: Sister-chromatid exchange (SCE) in vitro, Assay Code: SC2T, Evaluation Type: Evaluation B (Post-1980)
[4] = Species/Cell Type: Saccharomyces cerevisiae, Assay Type: Forward and reverse gene mutation, mitotic recombination and gene conversion, host-mediated assay, Assay Code: HME+, Evaluation Type: Evaluation A (Pre-1980)
[5] = Species/Cell Type: Saccharomyces cerevisiae, Assay Type: Mitotic recombination or gene conversion, Assay Code: YEC+, Evaluation Type: Evaluation A (Pre-1980)
[6] = Species/Cell Type: Saccharomyces cerevisiae, Assay Type: Reverse gene mutation, Assay Code: YER+, Evaluation Type: Evaluation A (Pre-1980)
[7] = Species/Cell Type: Salmonella typhimurium (one or more of the five standard strains: TA98, TA100, TA1535, TA1537, and TA1538), Assay Type: Histidine reverse gene mutation, Ames assay, Assay Code: SALT, Evaluation Type: Evaluation A (Pre-1980)
[8] = Species/Cell Type: Salmonella typhimurium (one or more of the five standard strains: TA98, TA100, TA1535, TA1537, and TA1538), Assay Type: Histidine reverse gene mutation, Ames assay, Assay Code: SAL+*, Activation: With metabolic activation, Evaluation Type: Evaluation A (Pre-1980)
[9] = Species/Cell Type: Chinese hamster lung (V79) cells, Assay Type: Forward gene mutation at the HPRT or ouabain locus, Assay Code: V79-, Evaluation Type: Evaluation A (Pre-1980)
[10] = Species/Cell Type: Salmonella typhimurium (one or more of the five standard strains: TA98, TA100, TA1535, TA1537, and TA1538), Assay Type: Histidine reverse gene mutation, Ames assay, Assay Code: SAL+, Evaluation Type: Evaluation A (Pre-1980)
[11] = Species/Cell Type: Salmonella typhimurium, Assay Type: Forward and reverse gene mutation, host-mediated assay, Assay Code: HMA+, Evaluation Type: Evaluation A (Pre-1980)
[12] = Species/Cell Type: Human diploid fibroblasts, Assay Type: Unscheduled DNA synthesis (UDS) in vitro, DNA effects, Assay Code: UDH-, Evaluation Type: Evaluation A (Pre-1980)
[13] = Species/Cell Type: Rodents, Sex: Male, Assay Type: Dominant lethal test, Assay Code: DLT-, Evaluation Type: Evaluation A (Pre-1980)
[14] = Species/Cell Type: Saccharomyces cerevisiae, Assay Type: Mitotic recombination or gene conversion, Assay Code: YEH-, Evaluation Type: Evaluation A (Pre-1980)

SMILES: ClC=C(Cl)Cl
- mutagenic call [1]: inactive; negative
- mutagenic call [2]: active; positive
- mutagenic call (Species/Cell Type: Mammalian polychromatic erythrocytes, Assay Type: Micronucleus test, chromosome aberrations, Assay Code: MNT+, Evaluation Type: Evaluation B (Post-1980)): active; positive
- mutagenic call (Species/Cell Type: Mouse, Sex: Female, Assay Type: Spot test, gene mutation, Assay Code: MST+, Evaluation Type: Evaluation A (Pre-1980)): active; positive
- mutagenic call (Species/Cell Type: Mouse, Sex: Male, Assay Type: Sperm morphology, Assay Code: SPI+, Evaluation Type: Evaluation A (Pre-1980)): active; positive
- call (Species/Cell Type: Nonhuman, Assay Code: CCG+L, Evaluation Type: Evaluation A (Pre-1980)): active; positive
- mutagenic call [3]: no conclusion
- mutagenic call [4]: active; positive
- mutagenic call [5]: active; positive
- mutagenic call (Species/Cell Type: Saccharomyces cerevisiae, Assay Type: Mitotic recombination or gene conversion, Assay Code: YEH+, Evaluation Type: Evaluation A (Pre-1980)): active; positive
- mutagenic call [6]: active; positive
- mutagenic call [7]: no conclusion
- mutagenic call (Species/Cell Type: Tradescantia species, Assay Type: Gene mutation, Assay Code: TRM+, Evaluation Type: Evaluation A (Pre-1980)): active; positive

SMILES: O=NN1CCC(c2ccccc2)CC1
- mutagenic call [8]: active; positive

SMILES: Nc1ccn([C@H]2C[C@H](O)[C@@H](CO)O2)c(=O)n1
- mutagenic call [9]: inactive; negative
- mutagenic call (Species/Cell Type: Glycine max (soybean), Assay Type: Gene mutation, Assay Code: GLM-, Evaluation Type: Evaluation A (Pre-1980)): inactive; negative
- mutagenic call (Species/Cell Type: Human lymphocytes, Assay Type: Sister-chromatid exchange (SCE) in vitro, Assay Code: SCLT, Evaluation Type: Evaluation A (Pre-1980)): no conclusion
- mutagenic call (Species/Cell Type: Human, Assay Type: Sister-chromatid exchange (SCE) in vitro, Assay Code: SC1T, Evaluation Type: Evaluation A (Pre-1980)): no conclusion
- mutagenic call [3]: no conclusion

SMILES: CCN(CC)CCn1nc2c3c(c(CO)ccc31)Sc1cc(Cl)ccc1-2
- mutagenic call [1]: inactive; negative
- mutagenic call (Species/Cell Type: Fischer rat embryo (RLV/1706) cells, Assay Type: Cell transformation, viral enhanced, Assay Code: CTR-, Evaluation Type: Evaluation A (Pre-1980)): inactive; negative
- mutagenic call (Species/Cell Type: Mouse lymphoma (L5178Y) cells, Assay Type: Forward gene mutation at the thymidine kinase (TK) locus, chromosome aberrations, Assay Code: L51+, Evaluation Type: Evaluation A (Pre-1980)): active; positive
- mutagenic call (Species/Cell Type: Neurospora crassa, Assay Type: Forward gene mutation, Assay Code: NEF+, Evaluation Type: Evaluation A (Pre-1980)): active; positive
- mutagenic call [6]: active; positive
- mutagenic call [10]: active; positive
- mutagenic call (Species/Cell Type: Salmonella typhimurium, Assay Type: Forward and reverse gene mutation, body fluid assay, Assay Code: BFU+, Evaluation Type: Evaluation A (Pre-1980)): active; positive
- mutagenic call [11]: active; positive

SMILES: Clc1ccc(C(c2ccccc2Cl)C(Cl)(Cl)Cl)cc1 (stereo unspecified)
- mutagenic call (Species/Cell Type: Nonhuman, Assay Type: Chromosome aberrations in vitro, Assay Code: CY&+, Evaluation Type: Evaluation A (Pre-1980)): active; positive

SMILES: NC(=S=O)c1ccccc1
- mutagenic call (Species/Cell Type: Mammalian polychromatic erythrocytes, Assay Type: Micronucleus test, chromosome aberrations, Assay Code: MNT+U, Dose Response: Unconfirmed positive response, Evaluation Type: Evaluation B (Post-1980)): active; positive

SMILES: O=C1CN(/N=C/c2ccc([N+](=O)[O-])o2)C(=O)N1
- mutagenic call (Species/Cell Type: Escherichia coli WP2, Assay Type: Tryptophan reverse gene mutation, Assay Code: WP2+, Evaluation Type: Evaluation A (Pre-1980)): active; positive
- mutagenic call (Species/Cell Type: Escherichia coli WP2 UVRA, Assay Type: Tryptophan reverse gene mutation, Assay Code: WPU+D, Dose Response: With dose response, Evaluation Type: Evaluation A (Pre-1980)): active; positive
- mutagenic call [12]: inactive; negative
- mutagenic call (Species/Cell Type: Human, Assay Type: Sister-chromatid exchange (SCE) in vitro, Assay Code: SC1T, Evaluation Type: Evaluation B (Post-1980)): no conclusion
- mutagenic call (Species/Cell Type: Human, Sex: Male, Assay Type: Sperm morphology, Assay Code: SPHT, Evaluation Type: Evaluation A (Pre-1980)): no conclusion
- mutagenic call (Species/Cell Type: Mammalian polychromatic erythrocytes, Assay Type: Micronucleus test, chromosome aberrations, Assay Code: MNT+, Evaluation Type: Evaluation A (Pre-1980)): active; positive
- mutagenic call (Species/Cell Type: Mouse, Sex: Male, Assay Type: Sperm morphology, Assay Code: SPI-, Evaluation Type: Evaluation A (Pre-1980)): inactive; negative
- call (Species/Cell Type: Nonhuman, Assay Code: CCGT, Evaluation Type: Evaluation A (Pre-1980)): no conclusion
- mutagenic call (Species/Cell Type: Nonhuman, Assay Type: Sister-chromatid exchange (SCE) in vitro, Assay Code: SC2+D, Dose Response: With dose response, Evaluation Type: Evaluation B (Post-1980)): active; positive
- mutagenic call (Species/Cell Type: Nonhuman, Assay Type: Sister-chromatid exchange (SCE) in vivo, Assay Code: SC3+, Evaluation Type: Evaluation B (Post-1980)): active; positive
- mutagenic call [13]: inactive; negative
- mutagenic call [4]: active; positive
- mutagenic call (Species/Cell Type: Saccharomyces cerevisiae, Assay Type: Mitotic recombination or gene conversion, Assay Code: YEC+*, Activation: With metabolic activation, Evaluation Type: Evaluation A (Pre-1980)): active; positive
- mutagenic call [10]: active; positive
- mutagenic call (Species/Cell Type: Salmonella typhimurium and Saccharomyces cerevisiae, Assay Type: Forward and reverse gene mutation, mitotic recombination and gene conversion, DNA effects, body fluid assay, Assay Code: BFG+, Evaluation Type: Evaluation A (Pre-1980)): active; positive

SMILES: CC(=O)Nc1nc(-c2cc([N+](=O)[O-])cs2)cs1
- mutagenic call [10]: active; positive

SMILES: CC1C=Cc2c1ccc1c2ccc2ccccc21 (stereo unspecified)
- mutagenic call [8]: active; positive

SMILES: CN(C)c1ccc(Cc2ccc(N(C)C)cc2)cc1
- mutagenic call (Species/Cell Type: Escherichia coli polA (W3119 vs P3478), Assay Type: Rec-assay, DNA effects (bacterial DNA repair), Assay Code: RE1+, Evaluation Type: Evaluation A (Pre-1980)): active; positive
- mutagenic call [2]: active; positive
- mutagenic call [12]: inactive; negative
- call (Species/Cell Type: Nonhuman, Assay Code: CCG+, Evaluation Type: Evaluation A (Pre-1980)): active; positive
- mutagenic call (Species/Cell Type: Nonhuman, Assay Type: Sister-chromatid exchange (SCE) in vitro, Assay Code: SC2+, Evaluation Type: Evaluation B (Post-1980)): active; positive
- mutagenic call [14]: inactive; negative
- mutagenic call [11]: active; positive
- mutagenic call (Species/Cell Type: Syrian hamster embryo (SHE) cells, Assay Type: Cell transformation, clonal assay, Assay Code: CTC+, Evaluation Type: Evaluation A (Pre-1980)): active; positive

SMILES: Nc1c(O)c(S(=O)(=O)O)cc2cc(S(=O)(=O)O)ccc12
- mutagenic call [13]: inactive; negative

SMILES: Cc1cc(O)c2c(c1O)C(=O)c1cc(O)cc(O)c1C2=O
- mutagenic call [10]: active; positive

SMILES: OCC(Cl)(Cl)Cl
- mutagenic call [7]: no conclusion

SMILES: O=C1CNCC(=O)N1C1CC1N1C(=O)CNCC1=O (stereo unspecified)
- mutagenic call [9]: inactive; negative

SMILES: O=NN(CCCl)C(=O)NCCO
- mutagenic call (Species/Cell Type: Drosophila melanogaster, Assay Type: Sex-linked recessive lethal gene mutation, Assay Code: SRL+, Evaluation Type: Evaluation A (Pre-1980)): active; positive
- mutagenic call [5]: active; positive

SMILES: CCN(CC)Cc1cc(Br)ccc1OCC(=O)NN
- mutagenic call (Species/Cell Type: Saccharomyces cerevisiae, Assay Type: Reverse gene mutation, Assay Code: YERT, Evaluation Type: Evaluation A (Pre-1980)): no conclusion

SMILES: Nc1ccc2ccc3ccccc3c2n1
- mutagenic call [8]: active; positive

SMILES: Cc1ccc2ccc3c4ccccc4ccc3c2c1
- mutagenic call [8]: active; positive

SMILES: O=C(O)c1ccccc1
- mutagenic call (Species/Cell Type: Escherichia coli WP2, Assay Type: Tryptophan reverse gene mutation, Assay Code: WP2-*, Activation: With metabolic activation, Evaluation Type: Evaluation A (Pre-1980)): inactive; negative
- mutagenic call (Species/Cell Type: Escherichia coli WP2 UVRA, Assay Type: Tryptophan reverse gene mutation, Assay Code: WPU-*, Activation: With metabolic activation, Evaluation Type: Evaluation A (Pre-1980)): inactive; negative
- mutagenic call (Species/Cell Type: Human, Assay Type: Sister-chromatid exchange (SCE) in vitro, Assay Code: SC1+, Evaluation Type: Evaluation B (Post-1980)): active; positive
- mutagenic call [14]: inactive; negative
- mutagenic call (Species/Cell Type: Salmonella typhimurium (one or more of the five standard strains: TA98, TA100, TA1535, TA1537, and TA1538), Assay Type: Histidine reverse gene mutation, Ames assay, Assay Code: SAL-, Evaluation Type: Evaluation A (Pre-1980)): inactive; negative

SMILES: CC(C)(c1ccc(O)cc1)c1ccc(O)cc1 (tested in a mixture with another compound)
- mutagenic call [10]: active; positive

SMILES: O=c1cnn([C@@H]2O[C@H](CO)[C@@H](O)[C@H]2O)c(=O)[nH]1
- mutagenic call (Species/Cell Type: Drosophila melanogaster, Assay Type: Sex-linked recessive lethal gene mutation, Assay Code: SRLT, Evaluation Type: Evaluation A (Pre-1980)): no conclusion
- mutagenic call (Species/Cell Type: Rabbit, Sex: Male, Assay Type: Sperm morphology, Assay Code: SPR+, Evaluation Type: Evaluation A (Pre-1980)): active; positive
